Measurements published in patent publication US20210231538A1, “DISSOCIATION OF BIOLOGICAL SAMPLES” (priority 2018, published 2021).
“Also recorded” adds a separate entry of the source. Where a name gives a salt, the structure may show the parent alone. Read-outs that look alike come from different tables or passages of the source.

How the values were obtained:
[1] = system: Trimethylglycine:Trifluoroacetamide fixed mouse liver single-cells; assay: Lysis of fixed cells by solvents and aqueous solutions; format: cell-based; conditions: for Cell lysis effect (4 day treatment): nuclei: whether nuclei are lysed
From the text: (§1) This is important for example if studying the RNA component of the cytoplasm, nuclei or the entire cell contents as a selection of the source of the RNA can be made based on the solvent used.

[2] = system: DES fixed cell cytoplasm and nuclei; assay: Solubilisation of cytoplasm versus nuclei of DES fixed cells; format: cell-based; conditions: DMSO at 25% or more final concentration
From the text: as §1
Such intact nuclei can be sorted, pelleted selected, and their contents analysed either in entire nuclei by using, for example, labeled antibodies specific to nuclear epitopes such as Ki-67 or, by using fluorescent nucleic acid probes for detecting RNA and DNA. Alternatively the purified nuclei can be lysed and their contents including proteins, DNA and RNA released for further analysis such as genomic DNA sequencing, protein-protein interactions, intron splicing, CHIP analysis, chromosome analysis and/or RNA sequencing.

[3] = 500 fixed, dissociated mouse liver cells per well, bromophenol blue stained, 4 day treatment
[4] = organic solvents in the range of 80-100% final concentration

CCO [100% Ethanol, Ethanol]
Cell lysis effect (4 day treatment) [1, 3]: No lysis

CCCCCCCCCCCCOS(=O)(=O)[O-].[Na+] [2% SDS, Sodium dodecyl sulphate]
Cell lysis effect (4 day treatment) ([1]; 500 fixed, dissociated mouse liver cells per well, bromophenol blue stained, 4 day treatment, listed as 0.1% SDS, sulphate): >15% cell lysis
Cell lysis effect (4 day treatment) ([1]; 500 fixed, dissociated mouse liver cells per well, bromophenol blue stained, 4 day treatment, sulphate): Complete Lysis

Triton X100 [1% Triton X100]
Cell lysis effect (4 day treatment) [1, 3]: >60% cell lysis

Tween-20 [1% Tween-20]
Cell lysis effect (4 day treatment) [1, 3]: >60% cell lysis

CCN(CC)C(=O)C(F)(F)F [N,N-Diethyl-2,2,2-Trifluoroacetamide]
Cell lysis effect (4 day treatment) [1, 3]: No lysis

C[N+](C)(C)C.[Cl-] [5M Tetramethyl ammonium chloride, Tetramethyl ammonium chloride]
Cell lysis effect (4 day treatment) [1]: No lysis

[O-][Cl+3]([O-])([O-])O [5M Sodium perchlorate, Sodium perchlorate]
Cell lysis effect (4 day treatment) [1, 3]: 100% cell lysis
lysing of Trimethylglycine:Trifluoroacetamide (1:2 mol:mol) fixed samples [1, 4]: efficient at lysing

NC(N)=O [8M Urea, Urea]
Cell lysis effect (4 day treatment) [1, 3]: > 95%
Cell lysis effect (4 day treatment): nuclei ([1]; 4 day treatment): not nuclei

OCCS [100% Beta-mercaptoethanol, Beta-mercaptoethanol]
Cell lysis effect (4 day treatment) [1, 3]: 100% cell lysis
Cell lysis effect (4 day treatment) ([1]; 500 fixed, dissociated mouse liver cells per well, bromophenol blue stained, 4 day treatment, listed as 10% Beta-mercaptoethanol): No lysis
Cell lysis effect (4 day treatment) ([1]; 500 fixed, dissociated mouse liver cells per well, bromophenol blue stained, 4 day treatment, listed as 20% Beta-mercaptoethanol): No lysis
Cell lysis effect (4 day treatment) ([1]; 500 fixed, dissociated mouse liver cells per well, bromophenol blue stained, 4 day treatment, listed as 40% Beta-mercaptoethanol): No lysis
Cell lysis effect (4 day treatment) ([1]; 500 fixed, dissociated mouse liver cells per well, bromophenol blue stained, 4 day treatment, listed as 60% Beta-mercaptoethanol): >50% cell lysis
Cell lysis effect (4 day treatment) ([1]; 500 fixed, dissociated mouse liver cells per well, bromophenol blue stained, 4 day treatment, listed as 80% Beta-mercaptoethanol): >80% cell lysis
lysing of Trimethylglycine:Trifluoroacetamide (1:2 mol:mol) fixed samples [1, 4]: particularly effective at effectuating cell lysis

IGEPAL-CA630 [50% IGEPAL-CA630]
Cell lysis effect (4 day treatment) [1, 3]: 100% cell lysis
Cell lysis effect (4 day treatment) ([1]; 500 fixed, dissociated mouse liver cells per well, bromophenol blue stained, 4 day treatment, listed as 10% IGEPAL-CA630): No lysis
Cell lysis effect (4 day treatment) ([1]; 500 fixed, dissociated mouse liver cells per well, bromophenol blue stained, 4 day treatment, listed as 30% IGEPAL-CA630): No lysis

C[S+](C)[O-] [100% DMSO, Dimethylsulphoxide]
Cell lysis effect (4 day treatment) [1, 3]: >70% cell lysis
lysing of Trimethylglycine:Trifluoroacetamide (1:2 mol:mol) fixed samples [1, 4]: particularly effective at effectuating cell lysis
solubilisation of fixed cell cytoplasm and nuclei [2]: very efficiently solubilises the Trimethylglycine:Trifluoroacetamide fixed cell's cytoplasm but not the nuclei; also recorded: particularly efficient at the solubilization and removal of the cell membrane and cytoplasm but not the nucleus

CCCC[N+](CCCC)(CCCC)CCCC.[Cl-] [5M Tetrabutyl ammonium chloride, Tetrabutyl ammonium chloride]
Cell lysis effect (4 day treatment) [1]: No lysis

[I-].[K+] [5M Potassium iodide, Potassium iodide]
Cell lysis effect (4 day treatment) [1, 3]: >50% cell lysis
Cell lysis effect (4 day treatment) ([1]; 500 fixed, dissociated mouse liver cells per well, bromophenol blue stained, 4 day treatment, listed as 1M Potassium iodide): No lysis
lysing of Trimethylglycine:Trifluoroacetamide (1:2 mol:mol) fixed samples [1, 4]: efficient at lysing

O=CN1CCOCC1 [100% Formyl morpholine, Formyl morpholine]
Cell lysis effect (4 day treatment) [1, 3]: No lysis

Oc1ccccc1 [phenol]
lysing of Trimethylglycine:Trifluoroacetamide (1:2 mol:mol) fixed samples [1]: particularly effective at effectuating cell lysis

PEG200 [100% PEG200]
Cell lysis effect (4 day treatment) [1, 3]: No lysis

OC(c1ccccc1)(C(F)(F)F)C(F)(F)F [1,1,1,3,3,3-Hexafluoro-2-phenyl-2-propanol]
lysing of Trimethylglycine:Trifluoroacetamide (1:2 mol:mol) fixed samples [1, 4]: particularly effective at effectuating cell lysis

NC=O [100% Formamide, Formamide]
Cell lysis effect (4 day treatment) [1, 3]: No lysis

C[C@H](CCC(=O)NCCC[N+](C)(C)CCCS(=O)(=O)[O-])[C@H]1CC[C@H]2[C@@H]3[C@H](O)C[C@@H]4C[C@H](O)CC[C@]4(C)[C@H]3C[C@H](O)[C@]12C [1% CHAPS, CHAPS]
Cell lysis effect (4 day treatment) [1, 3]: >80% cell lysis

NP40 [1% NP40]
Cell lysis effect (4 day treatment) [1, 3]: >50% cell lysis

N#CS.N=C(N)N [4M Guanidine thiocyanate, Guanidine thiocyanate]
Cell lysis effect (4 day treatment) [1]: >50% cell lysis

[Cl-].[Li+] [1M LiCl, LiCl]
Cell lysis effect (4 day treatment) [1, 3]: No lysis

CC(C)=O [100% Acetone, Acetone]
Cell lysis effect (4 day treatment) [1, 3]: No lysis

NC(=O)C(F)(F)F [Saturated Trifluoroacteamide, Trifluoroacteamide]
Cell lysis effect (4 day treatment) [1, 3]: No lysis

OC(C(F)(F)F)C(F)(F)F [100% 1,1,1,3,3,3-Hexafluoro-2-propanol, 1,1,1,3,3,3-Hexafluoro-2-propanol]
Cell lysis effect (4 day treatment) [1, 3]: Complete lysis
Cell lysis effect (4 day treatment) ([1]; 500 fixed, dissociated mouse liver cells per well, bromophenol blue stained, 4 day treatment, listed as 10% 1,1,1,3,3,3-Hexafluoro-2-propanol): No lysis
Cell lysis effect (4 day treatment) ([1]; 500 fixed, dissociated mouse liver cells per well, bromophenol blue stained, 4 day treatment, listed as 50% 1,1,1,3,3,3-Hexafluoro-2-propanol): >40% cell lysis
Cell lysis effect (4 day treatment) ([1]; 500 fixed, dissociated mouse liver cells per well, bromophenol blue stained, 4 day treatment, listed as 90% 1,1,1,3,3,3-Hexafluoro-2-propanol): Complete lysis
lysing of Trimethylglycine:Trifluoroacetamide (1:2 mol:mol) fixed samples [1, 4]: particularly effective at effectuating cell lysis
Cell lysis effect (4 day treatment): nuclei ([1]; 4 day treatment): including nuclei
solubilisation of fixed cell cytoplasm and nuclei [2]: very efficiently solubilises both the cytoplasm and nuclei

Tetramethyl ammonium oxide [50% Tetramethyl ammonium oxide]
Cell lysis effect (4 day treatment) [1, 3]: 100% cell lysis

NC(=O)C(F)(F)C(F)F [Saturated Tetrafluoropropionamide, Tetrafluoropropionamide]
Cell lysis effect (4 day treatment) [1, 3]: No lysis

Cn1ccnc1 [100% 1-Methylimidazole, 1-Methylimidazole]
Cell lysis effect (4 day treatment) [1, 3]: No lysis

N=C(N)N [5M Guanidine HCl, Guanidine HCl]
Cell lysis effect (4 day treatment) [1, 3]: >50% cell lysis

CC(O)(C(F)(F)F)C(F)(F)F [1,1,1,3,3,3-Hexafluoro-2-methyl-2-propanol]
lysing of Trimethylglycine:Trifluoroacetamide (1:2 mol:mol) fixed samples [1, 4]: particularly effective at effectuating cell lysis

NC(N)=S [Saturated Thiourea, Thiourea]
Cell lysis effect (4 day treatment) [1, 3]: 100% cell lysis

CN1CCCC1=O [50% N-methyl pyrrolidone, N-methyl pyrrolidone]
Cell lysis effect (4 day treatment) [1, 3]: No lysis

10 mg/ml BSA (acetylated): BSA (acetylated)
Cell lysis effect (4 day treatment) [1, 3]: No lysis

CCN1CCCC1=O [100% N-ethyl pyrrolidone, N-ethyl pyrrolidone]
Cell lysis effect (4 day treatment) [1, 3]: No lysis

CN(C)C(=O)C(F)(F)F [N,N-Methyl-2,2,2-Trifluoroacetamide]
Cell lysis effect (4 day treatment) [1, 3]: No lysis

OCC(O)CO [100% Glycerol, Glycerol]
Cell lysis effect (4 day treatment) [1, 3]: No lysis

CCn1ccnc1 [100% 1-Ethylimidazole, 1-Ethylimidazole]
Cell lysis effect (4 day treatment) [1, 3]: No lysis
